Test results reported in patent publication US9255100B2 (BAYER INTELLECTUAL PROPERTY GMBH, priority 2010, dated 2016).

These compounds were tested against T1, N-terminally GST-tagged human full length recombinant Mps-1 kinase (Homo sapiens, UniProt P33981) (assay: Mps-1 kinase assay (TR-FRET)). Settings: Mps1 IC50 [nM], 10 μM ATP, 1 μM peptide substrate, 60 min at 22° C.
T1 construct: N-terminally GST-tagged human full length recombinant Mps-1 kinase; purchased Invitrogen, Karslruhe, Germany PV4071
T1 sequence (P33981 1-857): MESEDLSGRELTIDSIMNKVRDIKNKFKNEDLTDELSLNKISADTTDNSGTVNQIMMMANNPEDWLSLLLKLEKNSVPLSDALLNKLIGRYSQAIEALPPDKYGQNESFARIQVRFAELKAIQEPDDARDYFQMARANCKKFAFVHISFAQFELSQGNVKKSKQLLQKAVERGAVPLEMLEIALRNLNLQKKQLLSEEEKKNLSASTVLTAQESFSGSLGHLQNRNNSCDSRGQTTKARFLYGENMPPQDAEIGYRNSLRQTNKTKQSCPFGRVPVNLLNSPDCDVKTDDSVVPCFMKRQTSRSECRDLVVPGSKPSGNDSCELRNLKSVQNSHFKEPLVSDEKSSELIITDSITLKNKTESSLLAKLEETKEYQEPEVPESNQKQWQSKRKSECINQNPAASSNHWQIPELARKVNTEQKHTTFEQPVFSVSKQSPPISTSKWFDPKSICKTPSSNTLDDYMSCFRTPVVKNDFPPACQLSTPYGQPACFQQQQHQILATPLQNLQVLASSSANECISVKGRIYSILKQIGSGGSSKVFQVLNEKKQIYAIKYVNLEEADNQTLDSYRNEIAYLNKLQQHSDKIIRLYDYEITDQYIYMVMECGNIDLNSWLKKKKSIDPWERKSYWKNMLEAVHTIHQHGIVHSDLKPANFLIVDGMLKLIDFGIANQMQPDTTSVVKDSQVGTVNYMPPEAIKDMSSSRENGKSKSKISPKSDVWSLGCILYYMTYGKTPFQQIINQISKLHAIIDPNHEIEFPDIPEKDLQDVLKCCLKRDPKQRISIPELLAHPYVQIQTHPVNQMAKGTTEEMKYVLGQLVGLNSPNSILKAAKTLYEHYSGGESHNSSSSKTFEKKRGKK
Format: biochemical
How it was run: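 TR-FRET signal between a Europium anti-phospho-Ser/Thr antibody and streptavidin-XLent reported phosphorylation of a biotinylated peptide by GST-tagged full-length Mps-1. Enzyme was near 1 nM final, chosen per lot for linearity.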

Row | Compound | IC50 [nM]
1 | CNC(=O)c1ccc(-c2cnc3c(NCCC(F)(F)F)cc(Oc4ccc(Cl)cc4)nn23)cc1C [Example 558, 4-{6-(4-chlorophenoxy)-8-[(3,3,3-trifluoropropyl)amino]imidazo[1,2-b]pyridazin-3-yl}-N, 2-dimethylbenzamide] | 0.3
2 | CNC(=O)c1ccc(-c2cnc3c(NCCN4CCOCC4)cc(Oc4ccc(OC)cc4F)nn23)cc1C [Example 565, 4-[6-(2-fluoro-4-methoxyphenoxy)-8-{[2-(morpholin-4-yl)ethyl]amino}imidazo[1,2-b]pyridazin-3-yl]-N,2-dimethylbenzamide] | 3.5
3 | CNC(=O)c1ccc(-c2cnc3c(NCCN4CCOCC4)cc(Oc4cc(F)ccc4C)nn23)cc1C [Example 566, 4-[6-(5-fluoro-2-methylphenoxy)-8-{[2-(morpholin-4-yl)ethyl]amino}imidazo[1,2-b]pyridazin-3-yl]-N,2-dimethylbenzamide] | 1.7
4 | CNC(=O)c1ccc(-c2cnc3c(NCC4CCOCC4)cc(Oc4cccc(F)c4)nn23)cc1C [Example 569, 4-{6-(3-fluorophenoxy)-8-[(tetrahydro-2H-pyran-4-ylmethyl)amino]imidazo[1,2-b]pyridazin-3-yl}-N,2-dimethylbenzamide] | < 1
5 | CNC(=O)c1ccc(-c2cnc3c(NCC4CCOCC4)cc(Oc4ccc(OC)cc4)nn23)cc1C [Example 570, 4-{6-(4-methoxyphenoxy)-8-[(tetrahydro-2H-pyran-4-ylmethyl)amino]imidazo[1,2-b]pyridazin-3-yl}-N,2-dimethylbenzamide] | < 1
6 | CNC(=O)c1ccc(-c2cnc3c(NCC4CCOCC4)cc(Oc4ccc(OC)cc4F)nn23)cc1C [Example 571, 4-{6-(2-fluoro-4-methoxyphenoxy)-8-[(tetrahydro-2H-pyran-4-ylmethyl)amino]imidazo[1,2-b]pyridazin-3-yl}-N,2-dimethylbenzamide] | < 1
7 | CNC(=O)c1ccc(-c2cnc3c(NCC4CCOCC4)cc(Oc4cc(F)ccc4C)nn23)cc1C [Example 572, 4-{6-(5-fluoro-2-methylphenoxy)-8-[(tetrahydro-2H-pyran-4-ylmethyl)amino]imidazo[1,2-b]pyridazin-3-yl}-N,2-dimethylbenzamide] | < 1
8 | CNC(=O)c1ccc(-c2cnc3c(NCCC(F)(F)F)cc(Oc4ccc(OC)cc4F)nn23)cc1C [Example 576, 4-{6-(2-fluoro-4-methoxyphenoxy)-8-[(3,3,3-trifluoropropyl)a-mino]imidazo[1,2-b]pyridazin-3-yl}-N,2-dimethylbenzamide] | < 1
9 | CNC(=O)c1ccc(-c2cnc3c(NCCC(F)(F)F)cc(Oc4cc(F)ccc4C)nn23)cc1C [Example 577, 4-{6-(5-fluoro-2-methylphenoxy)-8-[(3,3,3-trifluoropropyl)a-mino]imidazo[1,2-b]pyridazin-3-yl}-N,2-dimethylbenzamide] | 1.4
10 | CNC(=O)c1ccc(-c2cnc3c(NCCOC)cc(Oc4ccc(F)c(F)c4)nn23)cc1C [Example 582, 4-{6-(3,4-difluorophenoxy)-8-[(2-methoxyethyl)a-mino]imidazo[1,2-b]pyridazin-3-yl}-N,2-dimethylbenzamide] | 3.8
11 | CNC(=O)c1ccc(-c2cnc3c(NCCOC)cc(Oc4cc(F)ccc4C)nn23)cc1C [Example 585, 4-{6-(5-fluoro-2-methylphenoxy)-8-[(2-methoxyethyl)a-mino]imidazo[1,2-b]pyridazin-3-yl}-N,2-dimethylbenzamide] | 5.4
12 | CNC(=O)c1ccc(-c2cnc3c(NCCOC)cc(Oc4ccc(OC)c(F)c4)nn23)cc1C [Example 586, 4-{6-(3-fluoro-4-methoxyphenoxy)-8-[(2-methoxyethyl)a-mino]imidazo[1,2-b]pyridazin-3-yl]-N,2-dimethylbenzamide] | 1
13 | CCNC(=O)c1ccc(-c2cnc3c(NCCN4CCOCC4)cc(Oc4ccc(F)c(F)c4)nn23)cc1C [Example 588, 4-[6-(3,4-difluorophenoxy)-8-{[2-(morpholin-4-yl)ethyl]amino}imidazo[1,2-b]pyridazin-3-yl]-N-ethyl-2-methylbenzamide] | 2.2

The next lines start with the values.

Row | IC50 [nM] | Compound
14 | 0.6 | CCNC(=O)c1ccc(-c2cnc3c(NCCC(F)(F)F)cc(Oc4ccc(Cl)cc4)nn23)cc1C [Example 559, 4-{6-(4-chlorophenoxy)-8-[(3,3,3-trifluoropropyl)amino]imidazo[1,2-b]pyridazin-3-yl}-N-ethyl-2-methylbenzamide]
15 | 0.1 | CNC(=O)c1ccc(-c2cnc3c(NCCC(F)(F)F)cc(Oc4ccc(O)cc4F)nn23)cc1C [Example 560, 4-{6-(2-fluoro-4-hydroxyphenoxy)-8-[(3,3,3-trifluoropropyl)amino]imidazo[1,2-b]pyridazin-3-yl}-N,2-dimethylbenzamide]
16 | 0.6 | CCNC(=O)c1ccc(-c2cnc3c(NCCC(F)(F)F)cc(Oc4ccc(O)cc4F)nn23)cc1C [Example 561, N-ethyl-4-{6-(2-fluoro-4-hydroxyphenoxy)-8-[(3,3,3-trifluoropropyl)amino]imidazo[1,2-b]pyridazin-3-yl}-2-methylbenzamide]
17 | 2.7 | CNC(=O)c1ccc(-c2cnc3c(NCCN4CCOCC4)cc(Oc4ccc(F)c(F)c4)nn23)cc1C [Example 562, 4-[6-(3,4-difluorophenoxy)-8-{[2-(morpholin-4-yl)ethyl]amino}imidazo[1,2-b]pyridazin-3-yl]-N,2-dimethylbenzamide]
18 | 4.3 | CNC(=O)c1ccc(-c2cnc3c(NCCN4CCOCC4)cc(Oc4ccccc4C)nn23)cc1C [Example 563, N,2-dimethyl-4-[6-(2-methylphenoxy)-8-{[2-(morpholin-4-yl)ethyl]amino}imidazo[1,2-b]pyridazin-3-yl]benzamide]
19 | < 1 | CNC(=O)c1ccc(-c2cnc3c(NCC4CCOCC4)cc(Oc4ccc(F)c(F)c4)nn23)cc1C [Example 567, 4-{6-(3,4-difluorophenoxy)-8-[(tetrahydro-2H-pyran-4-ylmethyl)amino]imidazo[1,2-b]pyridazin-3-yl}-N,2-dimethylbenzamide]
20 | < 1 | CNC(=O)c1ccc(-c2cnc3c(NCC4CCOCC4)cc(Oc4ccccc4C)nn23)cc1C [Example 568, N,2-dimethyl-4-{6-(2-methylphenoxy)-8-[(tetrahydro-2H-pyran-4-ylmethyl)amino]imidazo[1,2-b]pyridazin-3-yl}benzamide]
21 | < 1 | CNC(=O)c1ccc(-c2cnc3c(NCC4CCOCC4)cc(Oc4ccc(OC)c(F)c4)nn23)cc1C [Example 573, 4-{6-(3-fluoro-4-methoxyphenoxy)-8-[(tetrahydro-2H-pyran-4-ylmethyl)amino]imidazo[1,2-b]pyridazin-3-yl}-N,2-dimethylbenzamide]
22 | < 1 | CNC(=O)c1ccc(-c2cnc3c(NCCC(F)(F)F)cc(Oc4cccc(F)c4)nn23)cc1C [Example 575, 4-{6-(3-fluorophenoxy)-8-[(3,3,3-trifluoropropyl)a-mino]imidazo[1,2-b]pyridazin-3-yl}-N,2-dimethylbenzamide]
23 | < 1 | CNC(=O)c1ccc(-c2cnc3c(NCC(F)F)cc(Oc4ccc(OC)cc4F)nn23)cc1C [Example 580, 4-{8-[(2,2-difluoroethyl)amino]-6-(2-fluoro-4-meth-oxyphenoxy)imidazo[1,2-b]pyridazin-3-yl}-N,2-dimethylbenzamide]
24 | < 1 | CNC(=O)c1ccc(-c2cnc3c(NCCOC)cc(Oc4cccc(F)c4F)nn23)cc1C [Example 581, 4-{6-(2,3-difluoro-phenoxy)-8-[(2-methoxyethyl)a-mino]imidazo[1,2-b]pyridazin-3-yl}-N,2-dimethylbenzamide]
25 | 6.9 | CNC(=O)c1ccc(-c2cnc3c(NCCOC)cc(Oc4ccccc4C)nn23)cc1C [Example 583, 4-{8-[(2-methoxyethyl)amino]-6-(2-methylphenoxy)imidazo[1,2-b]pyridazin-3-yl}-N,2-dimethylbenzamide]
26 | 2.3 | CNC(=O)c1ccc(-c2cnc3c(NCCOC)cc(Oc4ccc(OC)cc4F)nn23)cc1C [Example 584, 4-{6-(2-fluoro-4-methoxyphenoxy)-8-[(2-methoxyethyl)a-mino]imidazo[1,2-b]pyridazin-3-yl}-N,2-dimethylbenzamide]
27 | 3.2 | CNC(=O)c1ccc(-c2cnc3c(NCCOC)cc(Oc4ccccc4)nn23)cc1C [Example 587, 4-{8-[(2-methoxyethyl)amino]-6-phenoxyimidazo[1,2-b]pyridazin-3-yl}-N,2-dimethylbenzamide]
28 | 4.3 | CCNC(=O)c1ccc(-c2cnc3c(NCCN4CCOCC4)cc(Oc4ccccc4C)nn23)cc1C [Example 589, N-ethyl-2-methyl-4-[6-(2-methylphenoxy)-8-{[2-(morpholin-4-yl)ethyl]amino}imidazo[1,2-b]pyridazin-3-yl]benzamide]
